{
  "source": "patent US11357817B2",
  "about": "“Immunoproteasome inhibitor” (The Regents of the University of California, priority 2017, dated 2022)",
  "key": {"P. falciparum Dd2": {"tested_on": "P. falciparum Dd2", "assay": "P. falciparum Dd2 asexual blood stage SYBR Green I compound sensitivity assay", "assay_type": "cell-based, Plasmodium falciparum", "conditions": "Plasmodium falciparum, DD2, 72 h, asexual blood stage, 72 hour SYBR green assay", "protocol": "P. falciparum Dd2 strain parasites were cultured under standard conditions (31), using RPMI media supplemented with 0.05 mg/ml gentamycin, 0.014 mg/mL hypoxanthine (prepared fresh), 38.4 mM HEPES, 0.2% Sodium Bicarbonate, 3.4 mM Sodium Hydroxide, 0.05% O+ Human Serum (Denatured at […] for 40 min and From Interstate Blood Bank, Memphis, Tenn.) and 0.0025% Albumax). Human O+ whole blood was obtained from TSRI blood bank (La Jolla, Calif.). Leukocyte-free erythrocytes are stored at 50% hematocrit in RPMI-1640 screening media (as above, but without O+ human serum and with 2× albumax concentration) at 4° C. for one to three weeks before experimental use. Cultures were monitored every one to two days via Giemsa-stained thin smears.\nCompound susceptibility was measured using the malaria SYBR Green I-based fluorescence assay (32). Asynchronous P. falciparum parasites (Dd2 strain) were cultured in standard conditions before being plated for the assays. Each compound was tested over 72 hours in technical duplicates on a twelve-point concentration curve prepared by three-fold dilution from 6.7 μM to 0.11 nM. At least three independent experiments were carried out for IC50 determination. Artemisinin and chloroquine were used as controls. IC50 values were obtained using normalized fluorescence intensity from SYBR green I and analyzed via non-linear variable slope four-parameter regression curve-fitting model in Prism 6 (GraphPad Software Inc)."}, "[1]": {"tested_on": "P. falciparum Stage V gametocytes", "assay": "Compound sensitivity testing of Stage V gametocytes", "assay_type": "cell-based", "conditions": "Plasmodium falciparum, read-out: IC50 against stage V gametocytes", "protocol": "Gametocytes were induced in NF54 or derived clones as previously described (33). Asexual blood stage parasites were synchronized at ring stage using 5% sorbitol for three consecutive life cycles. Once the culture reached a parasitemia of 8-10% ring stages, half of the media was exchanged to stress the parasites. Twenty-four hours later, the culture media was exchanged with fresh media and the culture was shaken overnight. The following day, the culture was treated with 50 mM N-acetyl-glucosamine (NAG) (in complete media), and new media containing NAG was added every day for 10 days to clear remaining asexual blood stage parasites and enrich for gametocytes. After 10 days, complete media without NAG was provided each day for the last two days of gametocyte development in order to obtain ˜1% gametocytemia with >80% Stage V specificity and no visible asexual blood stage parasites (assessed via Giemsa-stained thin smears). Drug Sensitivity of Stage V gametocytes were then determined using a published protocol using mitotracker red (34). Each compound was tested in technical triplicate in a ten-point concentration curve prepared by three-fold dilution starting at 12.5 μM. At least three independent experiments were carried out for EC50 determination and puromycin was used as a positive control. […]"}, "[2]": {"tested_on": "20S Plasmodium proteasome (Pf20S) β1 subunit", "assay": "Proteasome activity assay, Pf20S β1 (z-LLE-AMC)", "assay_type": "biochemical, Plasmodium falciparum", "conditions": "450 nM compound; proteasome not named", "protocol": "(§1) Asynchronous P. falciparum cultures were grown up to 4-5% parasitemia, in 300 mL of RPMI media at 5.0% hematocrit. […] The PBS was removed and lysis buffer (0.15% saponin in PBS) was added on ice in 10 pellet volumes. Upon lysis of red blood cells, indicated by a clear red supernatant, the lysed cultures were centrifuged at 3200×g for 12 minutes at 4° C. The supernatant was removed by aspiration and the cells were washed twice using chilled PBS in microcentrifuge tubes. The cell pellets were then incubated on ice for 1 hour with occasional vortexing in a buffer consisting of 20 mM Tris-HCl pH 7.5, 5 mM MgCl2, 1 mM DTT, 100 μM E-64 and 1 mM AEBSF. This sample was then subjected to 3 rounds of freezing (−80° C.) and thawing (37° C.) and centrifugation at 6000×g for 10 min. The supernatant containing soluble P. falciparum protein was quantified by the BCA method (Pierce).\n(§2) P. falciparum proteasome was enriched by two-chromatographic steps reported previously (10). […] The AMC fluorophore release was monitored at Ex 340/Em 465 nm at 24° C. using a Synergy HTX multi-mode reader (Biotek). […] Proteins were eluted using 20 mM Tris-HCl pH 7.5, 100 mM NaCl, 10% glycerol and 1 mL fractions were collected, evaluated for protease activity and pooled. […]"}, "[3]": {"tested_on": "20S Plasmodium proteasome (Pf20S) β2 subunit", "assay": "Proteasome activity assay, Pf20S β2 (z-LRR-AMC)", "assay_type": "biochemical", "conditions": "450 nM compound; proteasome not named", "protocol": "as §1, §2"}},
  "data": [
    {"smiles": "CCCCCC(=O)N[C@@H](C(=O)N[C@@H](CCCC)C(=O)N[C@@H](CC(C)C)C(=O)[C@@]1(C)CO1)C(C)C", "note": "[Analog 18, (S)-2-((R)-2-hexanamido-3-methylbutanamido)-N—((S)-4-methyl-1-((R)-2-methyloxiran-2-yl)-1-oxopentan-2-yl)hexanamide]", "values": [
      {"measurement": "IC50", "setting": "P. falciparum Dd2", "result": "3.27 ± 0.232", "unit": "nM"},
      {"measurement": "IC50", "setting": "[1]", "result": 130, "unit": "nM"},
      {"measurement": "β1 activity reduced", "setting": "[2]", "result": 6, "unit": "%"},
      {"measurement": "β2 activity reduced", "setting": "[3]", "result": 9, "unit": "%"}
    ]}
  ]
}
